Measurements from US20150307519A1, “SMALL MOLECULES FOR RESTORING FUNCTION TO P53 CANCER MUTANTS” (THE REGENTS OF THE UNIVERSITY OF CALIFORNIA, priority 2014, published 2015).

Key:
[1] = tested on: Saos-2 cells expressing p53^G245S; assay: Cell count / viability of Saos-2 cells with doxycyclin-inducible p53 G245S; assay type: cell-based; settings: FIGS. 5A-5C; for p53 G245S-dependent cancer cell cytotoxicity: 27 hours
Text: ACS chemical biology, doi:10.1021/cb3005929 (2013).

[2] = molecular target: T1, WT DBD (wild-type p53 DBD protein) (Homo sapiens, UniProt P04637); assay: DSF thermal stabilization of WT DBD; assay type: binding; settings: DSF assay
T1 construct: wild-type p53 protein DBD protein (residues 94-312 of the full length); made in house; host or cells: Escherichia coli Rosetta 2 (DE3), vector pSE420
Method: (§1) To determine whether this stabilization was specific for copper, NSC319725 was also tested after addition of Fe(II)Cl2 and ZnCl2. […] NSC635448, […] were also tested for stabilization of G245S DBD and WT DBD in the DSF assay, yielding analogous results.
(§2) An equivalent volume of DMSO was used as a control. […] Sypro Orange stain (Bio-Rad, Hercules, Calif.) at 5,000× stock concentration was diluted to 5× concentration in 20 mM HEPES at pH 7.4 and added to each well of a 96-well plate. All SLS compounds were independently measured for fluorescence background to eliminate false positive results. […] All DSF assays were performed with a Touch RT-PCR system CFX96 (Bio-Rad) with the starting temperature of 4° C. by increasing the temperature of the plate 1.0° C. per min to 94° C. Fluorescence measurements were taken once every minute during all experiments. Tm values for each well, mean Tm values, and 95% confidence intervals were calculated with the program Prism 5 (GraphPad Software, La Jolla, Calif.) by fitting the raw fluorescence data to a Boltzmann sigmoidal curve.

G245S DBD = molecular target: T2, G245S DBD (Homo sapiens, UniProt P04637, G245S); assay: DSF thermal stabilization of G245S DBD; assay type: binding; settings: DSF assay
T2 construct: wild-type p53 protein DBD protein (residues 94-312 of the full length)
Method: as §1, §2

| SMILES | reactivation of p53^G245S in cells [1] | effect on Tm of WT DBD (qualitative) [2] | p53 G245S-dependent cancer cell cytotoxicity [1] | effect on Tm of G245S DBD (qualitative) (G245S DBD) |
| --- | --- | --- | --- | --- |
| Cn1ncc2c(Nc3ccc(Br)cc3)nc(Nc3ccc(Br)cc3)nc21 [NSC11667] | marked efficacy |  |  |  |
| C/C(=N\NC(=S)N(C)C)c1ccccn1 [NSC319725, reference compound] |  | no effect or a slight destabilization | marked | no effect or a slight destabilization |
| NS(=O)(=O)c1nc2nc[nH]c(=O)c2[nH]1 [NSC635448] | marked efficacy | increased the Tm | marked | increased the Tm |
